According to patent US6211364A, “Process for preparing indane-like compounds” (Eli Lilly and Company, priority 1999, dated 2001):

target: T1, human m4 receptors (Homo sapiens, UniProt P08173); experiment: M4 assay: cyclic AMP accumulation/production in pertussis toxin-treated CHO m4 cells (% maximum stimulation compared to oxotremorine-M); format: cell-based; conditions: read-out: % Maximum Stimulation Compared to Oxotremorine-M
T1 construct: expressed in transfected cells; host or cells: CHO K1
T1 sequence (P08173 whole entry): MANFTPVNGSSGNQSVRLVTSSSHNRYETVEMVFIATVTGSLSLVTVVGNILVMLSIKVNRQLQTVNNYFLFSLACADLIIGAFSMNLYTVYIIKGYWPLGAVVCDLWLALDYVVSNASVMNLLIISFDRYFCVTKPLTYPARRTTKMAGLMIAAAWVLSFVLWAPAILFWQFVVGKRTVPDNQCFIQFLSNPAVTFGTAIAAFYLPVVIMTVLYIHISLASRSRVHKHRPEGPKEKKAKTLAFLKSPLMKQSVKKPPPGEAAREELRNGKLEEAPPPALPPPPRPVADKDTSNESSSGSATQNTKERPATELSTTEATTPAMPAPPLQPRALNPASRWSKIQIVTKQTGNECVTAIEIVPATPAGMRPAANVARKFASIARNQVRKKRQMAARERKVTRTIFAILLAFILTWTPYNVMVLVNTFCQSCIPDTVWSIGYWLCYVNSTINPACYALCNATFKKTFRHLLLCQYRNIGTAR
Experimental: II. M4 muscarinic receptor […] assay:
Cyclic AMP Accumulation in Pertussis Toxin-Treated CHO m4 Cells.
CHO K1 cells transfected with human m4 receptors were grown to near confluency in T-150 flasks using Dulbecco's Modified Eagle Medium (DMEM) containing 10% fetal bovine serum. Cells were detached with 0.05% trypsin, 0.53 mM EDTA, and were suspended in medium containing 100 ng/ml pertussis toxin. Cells were plated at 30,000 cells per well into 96 well plates. Eighteen to twenty hours later the medium was removed and the cells were washed with serum-free medium. Attached cells were incubated at 37_C for one hour after addition of […] of serum free DMEM containing 1 mM 3-isobutyl-1-methylxanthine and 1 mM forskolin plus or minus drugs being tested. Incubations were terminated with […] per well of serum free DMEM containing 0.3%, triton-X-100. After stopping incubations the plates were allowed to sit for 20 minutes to extract cAMP and samples were then diluted 2.5-fold and were assayed using the scintillation proximity assay of Amersham (Arlington Heights, Ill.).
Representative results from the M4 assay are as follows:
Stimulation of cyclic AMP Production in CHO-m4 cells.

Structure (SMILES) | Emax [%]
O=C(N[C@H]1c2cc(N=CN3CCCC3)ccc2C[C@@H]1O)C1CCCCC1 (relative stereo) [Compound 11] | 34
O=C(N[C@H]1c2cc(N=CN3CCCC3)ccc2C[C@@H]1O)c1cccnc1Cl (relative stereo) [Compound 12] | 26
N#Cc1ccc(C(=O)N[C@H]2c3cc(N=CN4CCCC4)ccc3C[C@@H]2O)cc1 (relative stereo) [Compound 13] | < 20
O=C(N[C@H]1c2cc(N=CN3CCCC3)ccc2C[C@@H]1O)c1cc(Cl)cc(Cl)c1 (relative stereo) [Compound 14] | 100
O=C(N[C@H]1c2cc(N=CN3CCCC3)ccc2C[C@@H]1O)c1cccc2ccccc12 (relative stereo) [Compound 15] | 76
O=C(N[C@H]1c2cc(N=CN3CCCC3)ccc2C[C@@H]1O)c1ccc2ccccc2c1 (relative stereo) [Compound 17] | 56
O=C(N[C@H]1c2cc(N=CN3CCCC3)ccc2C[C@@H]1O)c1ccc(C(F)(F)F)cc1 (relative stereo) [Compound 18] | 61
O=C(N[C@H]1c2cc(N=CN3CCCC3)ccc2C[C@@H]1O)C(F)(F)F (relative stereo) [Compound 19] | < 20
O=C(N[C@H]1c2cc(N=CN3CCCC3)ccc2C[C@@H]1O)c1ccc([N+](=O)[O-])cc1Cl (relative stereo) [Compound 20] | 69
O=C(N[C@H]1c2cc(N=CN3CCCC3)ccc2C[C@@H]1O)c1cccs1 (relative stereo) [Compound 21] | 23
O=C(N[C@H]1c2cc(N=CN3CCCC3)ccc2C[C@@H]1O)c1cc(F)cc(F)c1 (relative stereo) [Compound 23] | < 20
O=C(N[C@H]1c2cc(N=CN3CCCC3)ccc2C[C@@H]1O)c1cccc(F)c1F (relative stereo) [Compound 24] | 22
O=C(N[C@H]1c2cc(N=CN3CCCC3)ccc2C[C@@H]1O)c1cccc([N+](=O)[O-])c1 (relative stereo) [Compound 25] | 43
CCCc1ccc(C(=O)N[C@H]2c3cc(N=CN4CCCC4)ccc3C[C@@H]2O)cc1 (relative stereo) [Compound 26] | < 20
Cc1cc(C)c(C(=O)N[C@H]2c3cc(N=CN4CCCC4)ccc3C[C@@H]2O)c(C)c1 (relative stereo) [Compound 27] | < 20
O=C(CSc1ccccc1)N[C@H]1c2cc(N=CN3CCCC3)ccc2C[C@@H]1O (relative stereo) [Compound 28] | < 20
O=C(N[C@H]1c2cc(N=CN3CCCC3)ccc2C[C@@H]1O)c1c(F)ccc(F)c1F (relative stereo) [Compound 29] | < 20
O=C(N[C@H]1c2cc(N=CN3CCCC3)ccc2C[C@@H]1O)c1cccc(F)c1 (relative stereo) [Compound 30] | < 20
O=C(N[C@H]1c2cc(N=CN3CCCC3)ccc2C[C@@H]1O)c1cccc(Cl)c1Cl (relative stereo) [Compound 31] | 45

Structure (SMILES) | Emax [%]
O=C(N[C@H]1c2cc(N=CN3CCCC3)ccc2C[C@@H]1O)c1cc(F)ccc1F (relative stereo) [Compound 32] | < 20
O=C(N[C@H]1c2cc(N=CN3CCCC3)ccc2C[C@@H]1O)c1ccc(F)c(F)c1F (relative stereo) [Compound 33] | 45
COc1cccc(C(=O)N[C@H]2c3cc(N=CN4CCCC4)ccc3C[C@@H]2O)c1 (relative stereo) [Compound 34] | 45
O=C(N[C@H]1c2cc(N=CN3CCCC3)ccc2C[C@@H]1O)c1ccccc1C(F)(F)F (relative stereo) [Compound 35] | 65
COc1cc(OC)cc(C(=O)N[C@H]2c3cc(N=CN4CCCC4)ccc3C[C@@H]2O)c1 (relative stereo) [Compound 36] | < 20
Cc1cccc(C(=O)N[C@H]2c3cc(N=CN4CCCC4)ccc3C[C@@H]2O)c1 (relative stereo) [Compound 37] | 76
N#Cc1cccc(C(=O)N[C@H]2c3cc(N=CN4CCCC4)ccc3C[C@@H]2O)c1 (relative stereo) [Compound 38] | < 20
O=C(N[C@H]1c2cc(N=CN3CCCC3)ccc2C[C@@H]1O)c1cc(F)c(F)c(F)c1 (relative stereo) [Compound 39] | 43
O=C(N[C@@H]1c2cc(N=CN3CCCC3)ccc2C[C@H]1O)c1cc(F)c(F)c(F)c1F (relative stereo) [Compound 40] | 96
O=C(N[C@@H]1c2cc(N=CN3CCCC3)ccc2C[C@H]1O)C1CCC1 (relative stereo) [Compound 41] | < 20
O=C(N[C@@H]1c2cc(N=CN3CCCC3)ccc2C[C@H]1O)c1ccccc1Cl (relative stereo) [Compound 44] | 41
CCCCc1ccc(C(=O)N[C@@H]2c3cc(N=CN4CCCC4)ccc3C[C@H]2O)cc1 (relative stereo) [Compound 45] | < 20
O=C(N[C@@H]1c2cc(N=CN3CCCC3)ccc2C[C@H]1O)c1c(Cl)cccc1Cl (relative stereo) [Compound 46] | 154
O=C(N[C@@H]1c2cc(N=CN3CCCC3)ccc2C[C@H]1O)c1c(Cl)cc(Cl)cc1Cl (relative stereo) [Compound 47] | < 20
CN(C)C=Nc1ccc2c(c1)[C@@H](NC(=O)c1ccccc1)[C@H](O)C2 (relative stereo) [Compound 57] | 5
CN(C)C=Nc1ccc2c(c1)[C@@H](NC(=O)c1cc(Cl)cc(Cl)c1)[C@H](O)C2 (relative stereo) [Compound 58] | 74
CCCCOc1ccc(C(=O)N[C@@H]2c3cc(N=CN(C)C)ccc3C[C@H]2O)cc1 (relative stereo) [Compound 59] | 22
CN(C)C=Nc1ccc2c(c1)[C@@H](NC(=O)c1cccc(C#N)c1)[C@H](O)C2 (relative stereo) [Compound 61] | 39
CN(C)C=Nc1ccc2c(c1)[C@@H](NC(=O)C1CCCC1)[C@H](O)C2 (relative stereo) [Compound 62] | 27

Structure (SMILES) | Emax [%]
CN(C)C=Nc1ccc2c(c1)[C@@H](NC(=O)c1ccc3ccccc3c1)[C@H](O)C2 (relative stereo) [Compound 63] | 13
CN(C)C=Nc1ccc2c(c1)[C@@H](NC(=O)c1cc(F)cc(C(F)(F)F)c1)[C@H](O)C2 (relative stereo) [Compound 64] | 52
CN(C)C=Nc1ccc2c(c1)[C@@H](NC(=O)c1cc(F)c(F)c(F)c1)[C@H](O)C2 (relative stereo) [Compound 65] | 30
CN(C)C=Nc1ccc2c(c1)[C@@H](NC(=O)C(F)(F)F)[C@H](O)C2 (relative stereo) [Compound 66] | 0
CCc1ccc(C(=O)N[C@@H]2c3cc(N=CN(C)C)ccc3C[C@H]2O)cc1 (relative stereo) [Compound 67] | 7
CN(C)C=Nc1ccc2c(c1)[C@@H](NC(=O)c1sccc1Cl)[C@H](O)C2 (relative stereo) [Compound 68] | 0
CN(C)C=Nc1ccc2c(c1)[C@@H](NC(=O)c1cc3ccccc3s1)[C@H](O)C2 (relative stereo) [Compound 69] | 14
CCCCc1ccc(C(=O)N[C@@H]2c3cc(N=CN(C)C)ccc3C[C@H]2O)cc1 (relative stereo) [Compound 70] | 18
CN(C)C=Nc1ccc2c(c1)[C@@H](NC(=O)c1cccc3ccccc13)[C@H](O)C2 (relative stereo) [Compound 71] | 95
CN(C)C=Nc1ccc2c(c1)[C@@H](NC(=O)c1cccnc1Cl)[C@H](O)C2 (relative stereo) [Compound 73] | 11
CN(C)C=Nc1ccc2c(c1)[C@@H](NC(=O)c1ccc(Cl)nc1)[C@H](O)C2 (relative stereo) [Compound 74] | 8
CN(C)C=Nc1ccc2c(c1)[C@@H](NC(=O)c1ccc(C(F)(F)F)cc1)[C@H](O)C2 (relative stereo) [Compound 75] | 6
CC(=Nc1ccc2c(c1)[C@@H](NC(=O)c1ccc(Cl)c(Cl)c1)[C@H](O)C2)N(C)C (relative stereo) [Compound 76] | 130
O=C(N[C@@H]1c2cc(N=CN3CCCCC3)ccc2C[C@H]1O)c1ccc(Cl)c(Cl)c1 (relative stereo) [Compound 77] | 214
O=C(N[C@@H]1c2cc(N=CN3CCCCC3)ccc2C[C@H]1O)c1cccc(Cl)c1Cl (relative stereo) [Compound 88] | 52
O=C(N[C@@H]1c2cc(N=CN3CCCCC3)ccc2C[C@H]1O)c1cc(Cl)cc(Cl)c1 (relative stereo) [Compound 97] | 36
O=C(N[C@@H]1c2cc(N=CN3CCCCC3)ccc2C[C@H]1O)c1cc(F)cc(F)c1 (relative stereo) [Compound 98] | 73
CN(C)C=Nc1ccc2c(c1)C(NS(=O)(=O)c1ccc(Cl)c(Cl)c1)C(O)C2 (stereo not drawn) [Compound 72] | 4

target: muscarinic receptor; experiment: not given; conditions: high affinity site; muscarinic receptor in the CNS; read-out: affinity of 3H-Oxo, first of three labeled sites; cited from earlier work

Structure (SMILES) | Kd [µM]
C[N+](C)(C)CC#CCN1CCCC1=O [3 H-Oxo] | 0.0018

same assay, conditions: medium affinity site; muscarinic receptor in the CNS; read-out: affinity of 3H-Oxo, second of three labeled sites; cited from earlier work

Structure (SMILES) | Kd [µM]
C[N+](C)(C)CC#CCN1CCCC1=O [3 H-Oxo] | 0.02

same assay, conditions: third site, not determined under the present conditions; muscarinic receptor in the CNS; read-out: affinity of 3H-Oxo, third of three labeled sites; cited from earlier work

Structure (SMILES) | Kd [µM]
C[N+](C)(C)CC#CCN1CCCC1=O [3 H-Oxo] | 3

test system: M1 -site muscarinic receptors; experiment: not given; conditions: M1 -site versus M2 -sites; cited from earlier work

Structure (SMILES) | selectivity of pirenzepine binding for muscarinic receptor subtype
CN1CCN(CC(=O)N2c3ccccc3C(=O)Nc3cccnc32)CC1 [Pirenzepine, pirenzepine, [N-methyl-^3 H]] | selective for M1 -sites
